Measured values: PubChem BioAssay (NCI)
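Values below derive from 48-hour exposures of cells grown in 96-well plates, with endpoints linearly interpolated between the two concentrations bracketing the appropriate inhibition level. GI50 marks 50% less growth. TGI is the concentration that stops growth completely.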

What was measured:
Assay in all cases: NCI anticancer screen, dose series, 48 h
[1] = system: DMS 114 small cell lung
[2] = system: HOP-62 NSCLC
[3] = system: NCI-H23 lung
[4] = system: SK-MEL-5 melanoma
[5] = system: SN12C renal
[6] = system: IGROV1 ovarian
[7] = system: MALME-3M melanoma
[8] = system: BT-549 breast
[9] = system: HS 578T breast

| Compound | TGI [1] | TGI [2] | TGI [3] | TGI [4] | TGI [5] | TGI [6] | TGI [7] | GI50 [8] | TGI [8] | GI50 [2] | GI50 [9] | TGI [9] | GI50 [6] | GI50 [7] | GI50 [3] | GI50 [4] | GI50 [5] |
| --- | --- | --- | --- | --- | --- | --- | --- | --- | --- | --- | --- | --- | --- | --- | --- | --- | --- |
| CC(=O)N(CCN)CCN | > 10 µM | > 10 µM | > 10 µM | > 100 µM | > 10 µM | – | – | – | – | – | – | – | – | – | – | – | – |
| COc1ccc(C(C2=C(C)C(=O)c3ccccc3C2=O)c2ccc(C(C)C)cc(=O)c2O)cc1 (stereo not given) | 8.54 µM | 6.65 µM | – | 15.2 µM | 8.4 µM | 12.6 µM | > 100 µM | – | – | – | – | – | – | – | – | – | – |
| Fc1cccc(Cl)c1C1SCc2nc3ccccc3n21 (stereo not given) | 65.6 µM | > 100 µM | 80.4 µM | 29.7 µM | > 100 µM | > 100 µM | 45.8 µM | – | – | – | – | – | – | – | – | – | – |
| Cc1cc(O)c2c(c1)C(O)(c1ccc3c(c1O)C(=O)c1c(O)cc(C)cc1C3(O)C1OC(CO)C(O)C(O)C1O)c1cccc(O)c1C2=O (stereo not given) | 22.7 µM | 28.9 µM | 31.2 µM | 33 µM | – | 28.1 µM | 25.5 µM | – | – | – | – | – | – | – | – | – | – |
| O=C(c1ccccc1)c1c(CC(O)c2cccnc2)n(C(=O)c2ccccc2)c2ccccc12 (stereo not given) | 74.2 µM | 30.4 µM | 36.5 µM | 31 µM | – | 55.5 µM | 43.3 µM | – | – | – | – | – | – | – | – | – | – |
| CC(C)N(C(=O)C12C3C4C1C1C2C3C41C(O)C(C)(C)C)C(C)C (stereo not given) | > 50 µM | > 50 µM | – | > 50 µM | > 50 µM | > 50 µM | > 50 µM | – | – | – | – | – | – | – | – | – | – |
| Cc1cc([N+](=O)[O-])c(C)c2c1[nH]c1ccc(/C(CCC3CCCC3)=N\N)cc12 | 35.2 µM | 36.7 µM | 32.7 µM | 37.7 µM | 29.7 µM | – | 32 µM | – | – | – | – | – | – | – | – | – | – |
| Cc1c(C)c2cc3c(=O)ccoc3c(C)c2oc1=O | > 100 µM | > 100 µM | > 100 µM | > 100 µM | > 100 µM | > 100 µM | > 100 µM | – | – | – | – | – | – | – | – | – | – |
| O=C1[C@@H](c2ccc(Cl)cc2)[C@H]2CC=C[C@H]2N1O | > 100 µM | > 100 µM | > 100 µM | > 100 µM | > 100 µM | > 100 µM | > 100 µM | – | – | – | – | – | – | – | – | – | – |
| COc1ccc2nc(-c3ccccc3)cc(Nc3cccc(/C(C)=N\O)c3)c2c1 | – | 4.27 µM | > 100 µM | 41 µM | 35.4 µM | > 100 µM | 20.2 µM | 32.8 µM | > 100 µM | 1.84 µM | 9.05 µM | 79.2 µM | 24.4 µM | 4.29 µM | 22.4 µM | 13.2 µM | 6.05 µM |
| COc1ccc(C(=O)N2c3ccccc3Sc3ccccc32)c(F)c1 | – | > 100 µM | > 100 µM | 22.5 µM | > 100 µM | > 100 µM | > 100 µM | 0.676 µM | > 100 µM | 0.968 µM | 0.377 µM | > 100 µM | 0.808 µM | 16.2 µM | 3.42 µM | 0.759 µM | 1.94 µM |
| C=C(C)C1CC2C(C)=C(OC(C)=O)C1n1c(=O)c3cc4ccccc4cc3c(=O)n12 (stereo not given) | > 100 µM | > 100 µM | > 100 µM | > 100 µM | > 100 µM | > 100 µM | > 100 µM | – | – | – | – | – | – | – | – | – | – |
| O=[N+]([O-])c1ccc(N=Nc2c(O)[nH]c3ccc([N+](=O)[O-])cc23)cc1 | 86.3 µM | 38.3 µM | 44.9 µM | 26.7 µM | – | > 100 µM | – | – | – | – | – | – | – | – | – | – | – |
